Measured values reported in US6677376B1, “Non-peptidic cyclophilin binding compounds and their use” (Guilford Pharmaceuticals, Inc., priority 1999, dated 2004).

Tests used:
spinal motor neurons = assay: Neuroprotection assay: THA neurotoxicity in spinal cord slice cultures; type: cell-based, Sprague-Dawley rat; details: THA 200 μM + compound 10 μM, primary cultures of spinal motor neurons
Protocol: For each of FIGS. 1-7, the bar graphs represent the number of viable neurons after a specified treatment regimen employed in a neuroprotective activity assay. The cells of the experiments were treated with a control solution, a neurotoxic solution, and neurotoxic+experimental compound solution. The statistical significance, p, is calculated using the standard 2 tailed Student's t test.
Each experiment consisted of two 6-well plates with 5 slices from 4 different animals per well. Media changes were performed every 3 to 4 days. […] The control was an untreated sample with 0.1% DMSO as vehicle. The THA control was a THA treated sample with 0.1% DSMO as vehicle. Two wells were used per condition. One media change with new THA and compounds was performed. […]
Quantification of surviving neurons was performed on a Ziess Axiovert microscope. Neuronal survival was determined by observing an intact neuronal cell body with processes located ventrally of the central canal in each hemisphere. […] Each hemisphere was counted individually. The statistics were performed with StatView software on a minimum of three different experiments per condition and significance was determined as compared to THA control. The percent of protection was determined from the average number of living neurons by the following equation: (drug treatment condition−THA control)/(Untreated control−THA control).

[1] = system: dorsal root ganglion (DRG) cells; assay: Neurite outgrowth in dorsal root ganglion (DRG) explant cultures; type: cell-based, mouse; details: for neuronal cell growth/neurite extension (images): compared to control, 48 hrs; for neurotrophic or neuroprotectant activity: assay not specified
Protocol: FIG. 7: Primary DRG cultures were used to test for neurotrophic, neurite outgrowth promoting, and neuroregenerative activity. Each of the compounds was incubated with cells at a concentration of 1 μM for 48 hours, as detailed in the examples.
Spinal cord and dorsal root ganglion (DRG) cells from adult mice can be isolated by micro-dissection. The spinal cord with attached DRGs from an adult mouse ([…]) is removed. Spinal nerves are cut away using micro-dissection scissors and any excess material is trimmed until the DRG is free. Using sharp micro-dissecting scissors, a transverse cut is made in the peripheral nerve, leaving 1-2 mm attached, and the explant placed into Petri dish and covered with plating media. When finished collecting all DRGs, the spinal nerve is trimmed to about […] in length. Then embed the explant in 30 μL of reduced growth factor Matrigel on a circular coverslip, and place in a […] culture dish. Cover the sensory ganglion explant with 2 mls of media. Compounds, drugs or control solutions are added from 10× stocks, and incubated at 37° C., 5% CO2, 95% humidity for 48 hrs. Wash cultures twice with PBS, and fix with 10% formalin for 30 minutes. Wash the fixed cultures twice with PBS and store refrigerated in PBS.
Place cultures in Block Buffer (5% Horse Serum, 5% Goat Serum, 1% Triton X, PBS pH=7.4) overnight, while rotating, at a temperature of 4° C. Add primary antibody (Beta tubulin, Sigma Chemical Co.) diluted in Block Buffer and incubate overnight at 4° C. Wash 5 times with PBS and apply secondary antibody (Alexa 488 Goat Anti-Mouse) diluted in block buffer. Incubate overnight at 4° C. Wash 5 times with PBS and leave overnight at 4 degrees. Coverslip the cultures and measure total neurite length from the end of the attached spinal nerve. Lengths of all neurites are quantitated and compared to those present in vehicle-treated control DRGs.

CyP A = CyP A (Homo sapiens, UniProt P62937)
Protocol: A number of substrates for rotamase are known in the art or can be derived from those known. Typically, the substrate contacts a sample containing a protein with rotamase activity and the conversion of the substrate is detected after a period of time. The method for detecting conversion of the substrate will vary with the particular substrate chosen.
The absorbance at 390 nm versus time is monitored for 90 seconds using a spectrophotometer and the rate constants are determined from the absorbance versus time data files.
While CyP A is used in these examples, other CyP proteins can be substituted.

CyP A, sequence (P62937 whole entry): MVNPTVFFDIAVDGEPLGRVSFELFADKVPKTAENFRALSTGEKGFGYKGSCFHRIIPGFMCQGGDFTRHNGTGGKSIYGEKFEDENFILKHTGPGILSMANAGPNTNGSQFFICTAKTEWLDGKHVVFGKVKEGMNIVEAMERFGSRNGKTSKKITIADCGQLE

Molecule	neuroprotective activity (number of viable neurons) (spinal motor neurons)	neuronal cell growth/neurite extension (images) [1]	neurotrophic or neuroprotectant activity [1]	further results
O=C(Nc1ccc(I)cc1)Nc1cc(NC(=O)Nc2ccc(I)cc2)c(Br)cc1Br [Compound 3]	displays neuroprotective activity	increase in neuronal cell growth/neurite extension		
CSc1ccc(Cl)cc1C(=O)Nc1cccc(NC(=O)c2cc(Cl)ccc2SC)c1 [Compound 6]		increase in neuronal cell growth/neurite extension	possess neurotrophic or neuroprotectant activity	
O=C(Nc1ccccc1)Nc1cc(NC(=O)Nc2ccccc2)cc(C(F)(F)F)c1 [Compound 7]		increase in neuronal cell growth/neurite extension	possess neurotrophic or neuroprotectant activity	
O=C(NCc1cccc2ccccc12)c1cccc(NC(=O)c2cc(Cl)cc(Cl)c2)c1 [Compound 16, {3-[(3,5-dichlorophenyl)carbonylamino]phenyl}-N-(naphthylmethyl) formamide]				melting point: 205 to 208 °C
N#Cc1cccc(NC(=O)NCc2cccc(CNC(=O)Nc3cccc(C#N)c3)c2)c1 [Compound 32]				% Inhibition at 10 μM (CyP A): None detected
cyclosporin A [reference compound]	maintains neuronal viability			
